In EP0452101B1, “Spiro bridged and unbridged heterocyclic compounds” (ISRAEL INSTITUTE FOR BIOLOGICAL RESEARCH, priority 1990, dated 1991):

Columns and labels:
[1] = system: Male white mice of the CD-1 strain; test: Pharmacodynamic profile and general toxicity, Part B (signs, mortality, LD50); assay type: in vivo; settings: Table 10
From the text: Male white mice of the CD-1 strain (Charles River, UK), within the body weight range of 18-26 g, were used throughout this study, carried out on AF123, AF125 and AF125(N).
Furthermore, these initial trials clearly established that the major signs of reactions to treatment consisted primarily of signs characteristic for potential cholinomimetic activity of the test material, such as tremors, salivation, lacrimation, diarrhea, analgesia, hypothermia and vasodilation. […]

[2] = Chemical stability (thermal, aqueous solution); assay type: physicochemical; settings: free base, monitored with 1H-NMR
From the text: Most of these compounds are relatively stable. […] Its chemical behaviour resembles that of known 2-oxazoline derivatives. […] The formation of the decomposition products can be monitored with ^1H-NMR by inspection at two regions δ 3.3-3.5 (appearance of two doublets) and 1.9-2.0 ppm (appearance of two additional singlets).
The expected decomposition pattern (when e.g., X is O and Y is N) involves opening of the oxazoline ring to form both amide and ester as shown in Scheme E, in which the quinuclidine-derived compounds are depicted illustratively. The formation of two new singlets at δ 1.9-2.0 ppm as expected for R = Me of these two structures are in agreement with this supposition. [drawing 32]
Ring opening is much faster in the presence of dilute hydrochloric acid. […] The tendency to decomposition of such salts complicates the optical separation of compounds such as AF125 and AF123. However, this problem can be overcome by using the method described for the optical separation of the enantiomers of AF125, or alternatively the amino-alcohols such as 3-aminomethylquinuclidin-3-ol can be resolved and the separated enantiomers can then be cyclized using an ester or imidate as already described. In yet another alternative the N-acyl derivatives of (e.g.) 3-aminomethylquinuclidin-3-ol can be resolved and the separated enantiomers can then be cyclized per se as shown in Scheme K: [drawing 33] […]

[3] = target: T1, M2 muscarinic receptors (Rattus norvegicus, UniProt P10980); test: Displacement of 3H-QNB from rat cerebellum, 50 mM phosphate buffer; assay type: binding; settings: cerebellum
T1 construct: displacing from rat brain homogenates, cerebellum or frontal cortex; from tissue; host or cells: rat cerebellum homogenates
T1 sequence (P10980 1-466): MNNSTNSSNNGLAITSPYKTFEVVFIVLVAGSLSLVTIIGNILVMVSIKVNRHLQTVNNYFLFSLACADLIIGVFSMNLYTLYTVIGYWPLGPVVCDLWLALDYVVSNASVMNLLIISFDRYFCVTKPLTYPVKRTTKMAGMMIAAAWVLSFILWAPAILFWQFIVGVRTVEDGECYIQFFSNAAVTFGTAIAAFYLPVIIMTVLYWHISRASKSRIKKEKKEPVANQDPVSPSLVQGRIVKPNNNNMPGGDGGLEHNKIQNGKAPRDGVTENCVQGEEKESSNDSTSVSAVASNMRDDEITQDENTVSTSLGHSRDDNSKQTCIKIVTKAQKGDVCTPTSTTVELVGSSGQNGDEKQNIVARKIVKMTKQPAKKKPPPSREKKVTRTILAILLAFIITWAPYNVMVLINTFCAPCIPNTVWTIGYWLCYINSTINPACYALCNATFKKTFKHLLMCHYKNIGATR

[4] = target: T2, M1 muscarinic receptor (Rattus norvegicus, UniProt P08482); test: Displacement of 3H-PZ from rat cerebral cortex, 10 mM phosphate buffer; assay type: binding; set-up: from tissue; host or cells: rat cerebral cortex homogenates; settings: for % H / Ki: cortex, Table 4; for Ki: read-out: 3H-PZ-Binding KH (a)
T2 sequence (P08482 1-460): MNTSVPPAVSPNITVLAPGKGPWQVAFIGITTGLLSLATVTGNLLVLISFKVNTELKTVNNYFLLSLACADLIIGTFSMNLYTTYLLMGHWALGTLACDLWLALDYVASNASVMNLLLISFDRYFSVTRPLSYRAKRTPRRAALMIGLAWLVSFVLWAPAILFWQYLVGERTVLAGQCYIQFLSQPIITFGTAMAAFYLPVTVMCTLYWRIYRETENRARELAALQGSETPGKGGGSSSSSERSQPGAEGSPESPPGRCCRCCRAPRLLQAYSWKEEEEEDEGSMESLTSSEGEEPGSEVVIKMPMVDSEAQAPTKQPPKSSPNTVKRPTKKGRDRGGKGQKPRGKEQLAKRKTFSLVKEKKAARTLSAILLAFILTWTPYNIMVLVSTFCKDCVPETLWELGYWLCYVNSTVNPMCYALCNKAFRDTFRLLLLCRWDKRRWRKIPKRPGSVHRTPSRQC

[5] = system: muscarinic receptors; test: (-)3H-QNB binding to rat cerebral cortex homogenates with and without Cu++ treatment
[6] = target: T2, M1 muscarinic receptor; test: Displacement of 3H-QNB from rat cerebral cortex, 50 mM phosphate buffer; assay type: binding; settings: cortex, Table 5
[7] = target: T3, m3 subtype (SK-N-SH cells) (Homo sapiens, UniProt P20309); test: PI hydrolysis in SK-N-SH neuroblastoma cells; assay type: cell-based
T3 construct: endogenous in cells; host or cells: SK-N-SH human neuroblastoma cells
T3 sequence (P20309 whole entry): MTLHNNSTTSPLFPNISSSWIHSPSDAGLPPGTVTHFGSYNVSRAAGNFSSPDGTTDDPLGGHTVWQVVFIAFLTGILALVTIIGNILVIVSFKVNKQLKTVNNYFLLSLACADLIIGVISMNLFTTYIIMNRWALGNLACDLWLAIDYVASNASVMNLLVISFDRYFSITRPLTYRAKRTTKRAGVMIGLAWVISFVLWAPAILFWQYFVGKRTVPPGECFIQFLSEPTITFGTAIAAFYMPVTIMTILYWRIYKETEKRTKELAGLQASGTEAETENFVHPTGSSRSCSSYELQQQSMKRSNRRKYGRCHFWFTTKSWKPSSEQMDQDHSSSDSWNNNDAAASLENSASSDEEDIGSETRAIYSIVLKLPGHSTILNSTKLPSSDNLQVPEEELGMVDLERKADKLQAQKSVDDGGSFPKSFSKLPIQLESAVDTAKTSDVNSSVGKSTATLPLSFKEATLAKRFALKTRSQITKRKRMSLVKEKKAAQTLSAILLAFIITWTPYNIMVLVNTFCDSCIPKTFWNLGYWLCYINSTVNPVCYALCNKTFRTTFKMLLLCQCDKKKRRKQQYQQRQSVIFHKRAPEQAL
Description: (§1) The new compounds AF150, AF151, AF150(S) and AF125 were assayed for their ability to stimulate PI in CHO cells transfected with m1 and m3 receptors, respectively (Buck and Fraser, loc cit), and in cultured human neuroblastoma cells, line SK-N-SH, which express mainly the m3 subtype, but not the m1 subtype (Pinkas-Kramarski et al, Neurosci. Lett. 188: 335-340, 1990; Luthin et al Mol. Pharmacol. 34: 327-333, 1988). These compounds were also assayed on cultured PC12 cells which express mainly m4 subtype receptors and are coupled to inhibition of AC activity (Pinkas-Kramarski et al, loc cit).
(§2) Stimulation of PI breakdown was assayed using the method described by Stein et al (EMBO J. 7: 3031-3035, 1988), and modulation of AC activity was assayed by the method of Stein et al, loc cit and Pinkas-Kramarski et al (FEBS Lett., 239: 174-178, 1988). […]

[8] = system: CA1 neurons in the hippocampal slice; test: Electrophysiological evaluation in rat hippocampal slices
Description: In general terms the effects of microdrops of AF150, ACh and PZ were applied to rat hippocampal cells recorded intracellularly. The exact concentrations of the drug at the receptor sites are not known, using this method. However, this method has an advantage over the perfusion method, in that it gives a more correct picture from the electrophysiological point of view (Segal, loc cit).
Intracellular responses to AF150 of CA1 neurons in the hippocampal slice were recorded, using the method of Segal. Small hyperpolarizing current pulses (current traces not shown) were alternated with stimulation of the Schaffer-commissural afferents producing postsynaptic potentials.

[9] = target: T2, M1 muscarinic receptor; test: Displacement of 3H-PZ from cortical binding sites, Tris/Mn buffer, with and without GppNHp; set-up: from tissue; host or cells: rat cerebral cortex homogenates
From the text: The binding of agonists to M1 muscarinic receptors and the effect of guanylyl imidophosphate (GppNHp). Agonists are known to be coupled with guanine nucleotide binding proteins (G proteins).
Non-hydrolyzable guanine nucleotides such as GppNHp dissociate the G protein from the receptor and decrease the affinity of the receptor for agonists but not for antagonists. […] Molec.
Under these conditions agonists of high efficacy ("full agonists") bind directly to the M1 receptor subtype with two affinities. […] The ratio of low and high affinities (KL/KH) of the M1 receptor may predict the relative efficacies of agonists to activate putative M1 receptor-mediated second messenger systems.
KH, KL, %H and %L are the apparent inhibition constants of the tested ligands for the high and low affinity sites, respectively. G is GppNHp (guanylyl imidodiphosphate), and was used in 0.1 mM concentration. Displacement of ^3H-PZ from cortical binding sites was performed in Tris/Mn buffer (pH 7.4) for one hour at 25°C; the buffer included 1 mM EDTA and 2mM Mn^++ ions. […] The binding data were analyzed using a GraphPAD program and were fitted to one or two components. Values are means from 1-3 experiments carried out in triplicates.

[10] = target: m3 receptors (Rattus norvegicus, UniProt P08483); test: PI hydrolysis in CHO cells transfected with m3 receptors; assay type: cell-based; settings: CHO m3; tested at 1mM
Sequence of m3 receptors (P08483 whole entry): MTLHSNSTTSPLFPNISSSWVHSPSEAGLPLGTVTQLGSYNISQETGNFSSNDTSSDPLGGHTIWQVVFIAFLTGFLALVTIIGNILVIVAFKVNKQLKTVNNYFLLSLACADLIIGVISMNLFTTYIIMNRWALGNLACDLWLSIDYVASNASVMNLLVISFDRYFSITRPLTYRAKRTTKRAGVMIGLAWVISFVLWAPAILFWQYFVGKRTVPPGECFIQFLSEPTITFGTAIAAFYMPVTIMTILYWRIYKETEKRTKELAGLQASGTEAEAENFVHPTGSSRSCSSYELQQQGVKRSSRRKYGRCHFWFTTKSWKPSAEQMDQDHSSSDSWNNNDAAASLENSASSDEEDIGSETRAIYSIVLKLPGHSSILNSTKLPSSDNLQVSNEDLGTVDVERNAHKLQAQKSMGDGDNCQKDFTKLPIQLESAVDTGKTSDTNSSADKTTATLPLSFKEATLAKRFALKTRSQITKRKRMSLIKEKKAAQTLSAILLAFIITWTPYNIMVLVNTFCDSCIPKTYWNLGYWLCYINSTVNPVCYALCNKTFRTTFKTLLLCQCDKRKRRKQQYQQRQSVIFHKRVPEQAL
Description: as §1, §2

[11] = target: T4, m1 receptors (Rattus norvegicus, UniProt P08482); test: PI hydrolysis in CHO cells transfected with m1 receptors; assay type: cell-based
T4 construct: expressed in transfected cells; host or cells: CHO cells
T4 sequence (P08482 1-460): T2 sequence (P08482 1-460)

[12] = target: T5, m4 subtype receptors (PC12 cells) (Rattus norvegicus, UniProt P08485); test: Inhibition of adenylate cyclase activity in PC12 cells; assay type: cell-based
T5 construct: endogenous in cells; host or cells: PC12 cells
T5 sequence (P08485 1-478): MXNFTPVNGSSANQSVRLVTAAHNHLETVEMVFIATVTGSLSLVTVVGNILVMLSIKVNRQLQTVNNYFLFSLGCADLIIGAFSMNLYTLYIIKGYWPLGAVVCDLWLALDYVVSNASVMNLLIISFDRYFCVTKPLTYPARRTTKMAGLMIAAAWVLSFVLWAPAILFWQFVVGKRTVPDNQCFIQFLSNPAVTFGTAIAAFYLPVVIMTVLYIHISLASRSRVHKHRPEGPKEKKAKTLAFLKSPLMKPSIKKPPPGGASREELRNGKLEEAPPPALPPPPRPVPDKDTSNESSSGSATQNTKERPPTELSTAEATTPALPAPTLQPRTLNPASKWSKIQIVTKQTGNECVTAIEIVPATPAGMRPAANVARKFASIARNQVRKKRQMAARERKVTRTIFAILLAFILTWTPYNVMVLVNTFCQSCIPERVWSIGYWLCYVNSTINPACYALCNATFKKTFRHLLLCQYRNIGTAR
Description: as §1, §2

[13] = 400 mg/kg p.os, animals affected/treated

SMILES: CCC1=NCC2(CN3CCC2CC3)O1 (racemic) [AF123, 2-Ethyl spiro(1,3 oxazoline 5,3')quinuclidine]
- Mortality no. ([1]; 50 mg/kg i.v.): 0/5
- Mortality no. ([1]; 100 mg/kg i.v.): 5/5
- Mortality time ([1]; 100 mg/kg i.v.): 1 min
- Convulsive seizure (Con) ([1]; 100 mg/kg i.v., animals affected/treated): 5/5
- Mortality no. ([1]; 200 mg/kg i.v.): 5/5
- Mortality time ([1]; 200 mg/kg i.v.): immed
- Mortality no. ([1]; 200 mg/kg p.os): 0/5
- Mortality time ([1]; 200 mg/kg p.os): 3 min
- Tremors (Tre) ([1]; 200 mg/kg p.os, animals affected/treated): 4/5
- Mortality no. ([1]; 400 mg/kg p.os): 5/5
- Mortality time ([1]; 400 mg/kg p.os): 3 min
- Convulsive seizure (Con) [1, 13]: 5/5
- Respiratory distress (Res) [1, 13]: 5/5
- Tremors (Tre) [1, 13]: 5/5
- decomposition in aqueous solution [2]: same pattern of decomposition
- Ki ([3]; 3H-QNB-Binding KH (c), Table 4): 3900 nM
- % H ([3]; Table 4): 100%
- RATIOS c:a ([4]; KH cerebellum (3H-QNB) : KH cortex (3H-PZ)): 3.0
- % H [4]: 100%
- Ki [4]: 1300 nM

SMILES: CC1OC2(CS1)CN1CCC2CC1 (stereo not drawn) [AF102B, cis-2-methylspiro(1,3-oxathiolane-5',3)quinuclidine, reference compound]
- %H (% of high affinity state) ([5]; with Cu++ pretreatment (100 µM, 30 minutes)): 26%
- %H (% of high affinity state) ([5]; with Cu++ pretreatment (100 µM, 30 minutes), listed as 4): 26±5%
- %H (% of high affinity state) ([5]; without pretreatment): 0%
- % H1 [6]: 100%
- block of oxotremorine-M-induced phosphoinositide hydrolysis [7]: completely blocked
- PI (phosphoinositides hydrolysis) ([7]; SK-N-SH m3, tested at 1mM): -
- inhibition at 1000 µM ([7]; SK-N-SH, read-out: inhibition of the oxotremorine-M signal): 34%
- stimulation of phosphoinositide hydrolysis ([7]; even at 1 mM): failed to stimulate phosphoinositide hydrolysis
- slow AHP (Ca++-dependent K+ conductance) ([8]; applied topically by microdrops): block the slow AHP
- depolarization ([8]; applied topically by microdrops (AF150: 100 µM)): not shown in the case of AF102B
- Ki ([3]; 3H-QNB-Binding KH2 (c), Table 5): 5900 nM
- Ki ([3]; 3H-QNB-Binding KH (c), Table 4): 6000 nM
- % H ([3]; Table 4): 100%
- % H2 ([3]; Table 5): 100%
- Ki ([9]; +G (0.1 mM GppNHp), read-out: KH): 700 to 1000 nM
- Ki ([9]; +G (0.1 mM GppNHp), read-out: KL): 700 to 1000 nM
- Ki ([9]; -G (without GppNHp), read-out: KH): 700 to 1000 nM
- Ki ([9]; -G, read-out: KL): 700 to 1000 nM
- % H [4]: 100%
- Ki [4]: 1000 nM
- PI (phosphoinositides hydrolysis) [10]: -
- PI, % of carbachol effect ([11]; CHO m1): 20%
- effective concentration which induces the effect ([11]; CHO m1, PI hydrolysis, footnote b): 30^b µM
- PI (phosphoinositides hydrolysis) ([11]; CHO m1, tested at 1mM): +
- AC, % of carbachol effect ([12]; PC12 m4): 40%
- effective concentration which induces the effect ([12]; PC12 m4, AC activity, footnote b): 0.1^b µM
- AC (adenylate cyclase activity) ([12]; PC12 m4, tested at 1mM): +
